Source: patent publication US20230310372A1 (Amarin Pharmaceuticals Ireland Limited, priority 2013, published 2023)
Several values for one entry are separate records, joined by “and”; a condition that tells them apart may be missing. Equal values may be shown once.

Assay: Phase 1, open-label, crossover drug-drug interaction study: steady-state plasma pharmacokinetics of atorvastatin and its two active metabolites with or without ethyl eicosapentaenoate
Conditions: for Effect of co-administration of ethyl eicosapentaenoate on Tmax: atorvastatin 80 mg alone versus with 4 g ethyl eicosapentaenoate; for Change of mean plasma concentrations over time: subjects concomitantly administered 4 g of ethyl eicosapentaenoate, FIG. 1B, 1C
Excerpt: Data for Cmax and AUC0-24 are reported as means (SD); data for Tmax are reported as median values.

[1] = 80 mg atorvastatin co-administered with 4 g ethyl eicosapentaenoate
[2] = atorvastatin + ethyl eicosapentaenoate group divided by atorvastatin only group
[3] = atorvastatin + ethyl eicosapentaenoate versus atorvastatin only

## CC(C)c1c(C(=O)Nc2ccccc2O)c(-c2ccccc2)c(-c2ccc(F)cc2)n1CCC(O)CC(O)CC(=O)O (stereo not drawn) [2-Hydroxyatorvastatin, 2-hydroxyatorvastatin]
80 mg atorvastatin alone
  AUC0-24, mean: 213.1 ng·h/mL
  Cmax, mean: 43.2 ng/mL
  Tmax, median: 1.25 h
[1]
  AUC0-24, mean: 196.7 ng·h/mL
  Cmax, mean: 44.5 ng/mL
  Tmax, median: 1.25 h
A + EPA = atorvastatin (80 mg) co-administered with ethyl eicosapentaenoate (4 g)
  AUC0-24, LSGM (least squares geometric mean): 30.9 ng·h/mL
  Effect of co-administration of ethyl eicosapentaenoate on Tmax: did not significantly affect
  Change of mean plasma concentrations over time: did not significantly change
[2]
  AUC0-24, Ratio of LSGM: 0.91 and 0.92
  Cmax, Ratio of LSGM: 1.04 and 0.97
[3]
  AUC0-24, 90% CI of the ratio: 82.8-99.7 and 82.3-103
  Cmax, 90% CI of the ratio: 89.1-121 and 80.0-117

## CC(C)c1c(C(=O)Nc2ccc(O)cc2)c(-c2ccccc2)c(-c2ccc(F)cc2)n1CC[C@@H](O)C[C@@H](O)CC(=O)O [4-Hydroxyatorvastatin, 4-hydroxyatorvastatin]
80 mg atorvastatin alone
  AUC0-24, mean: 36.7 ng·h/mL
  Cmax, mean: 4.1 ng/mL
  Tmax, median: 1.50 h
[1]
  AUC0-24, mean: 34.3 ng·h/mL
  Cmax, mean: 4.2 ng/mL
  Tmax, median: 1.50 h
  Effect of co-administration of ethyl eicosapentaenoate on Tmax: did not significantly affect
  Change of mean plasma concentrations over time: did not significantly change
